In ChEMBL document CHEMBL5291721, “A preclinical secondary pharmacology resource illuminates target-adverse drug reaction associations of marketed drugs” (Nat Commun, 2023):

Assays:
[1] = molecular target: T1, Gamma-aminobutyric acid receptor subunit alpha-1/alpha-2/beta-2/gamma-2 (Homo sapiens, UniProt P14867+P18507+P47869+P47870); format: protein-complex assay
[2] = molecular target: T2, Alpha-1A adrenergic receptor (Homo sapiens, UniProt P35348)
T2 sequence (P35348 whole entry): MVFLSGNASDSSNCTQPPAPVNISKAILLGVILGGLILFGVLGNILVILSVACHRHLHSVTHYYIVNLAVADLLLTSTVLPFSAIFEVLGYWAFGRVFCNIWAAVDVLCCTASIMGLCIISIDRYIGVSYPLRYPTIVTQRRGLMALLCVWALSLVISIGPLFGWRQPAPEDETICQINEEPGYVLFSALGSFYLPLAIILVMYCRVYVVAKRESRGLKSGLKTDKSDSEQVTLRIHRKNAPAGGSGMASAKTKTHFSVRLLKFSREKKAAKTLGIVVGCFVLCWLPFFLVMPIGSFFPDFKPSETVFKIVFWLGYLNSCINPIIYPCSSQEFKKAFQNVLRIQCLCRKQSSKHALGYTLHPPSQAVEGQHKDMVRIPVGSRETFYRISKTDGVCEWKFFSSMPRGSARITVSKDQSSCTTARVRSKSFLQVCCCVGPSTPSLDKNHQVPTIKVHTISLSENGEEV

[3] = molecular target: Muscarinic acetylcholine receptor M3 (Homo sapiens, UniProt P20309)
Chain of Muscarinic acetylcholine receptor M3 (P20309 whole entry): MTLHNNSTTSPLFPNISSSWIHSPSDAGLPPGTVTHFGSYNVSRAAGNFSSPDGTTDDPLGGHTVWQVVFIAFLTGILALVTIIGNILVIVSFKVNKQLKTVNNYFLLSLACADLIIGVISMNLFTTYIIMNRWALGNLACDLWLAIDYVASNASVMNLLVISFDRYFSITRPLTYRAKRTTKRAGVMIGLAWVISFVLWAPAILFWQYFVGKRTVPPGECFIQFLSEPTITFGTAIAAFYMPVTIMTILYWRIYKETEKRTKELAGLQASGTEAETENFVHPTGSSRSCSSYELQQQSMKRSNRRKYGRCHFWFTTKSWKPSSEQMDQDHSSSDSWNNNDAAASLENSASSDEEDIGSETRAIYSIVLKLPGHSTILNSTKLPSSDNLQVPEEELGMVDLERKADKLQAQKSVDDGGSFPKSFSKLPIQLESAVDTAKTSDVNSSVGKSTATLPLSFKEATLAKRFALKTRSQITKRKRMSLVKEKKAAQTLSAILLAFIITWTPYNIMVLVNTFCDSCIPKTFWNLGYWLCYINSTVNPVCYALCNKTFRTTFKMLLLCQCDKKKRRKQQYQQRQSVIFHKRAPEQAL

Histamine H1 receptor = Histamine H1 receptor (Homo sapiens, UniProt P35367)
Chain of Histamine H1 receptor (P35367 whole entry): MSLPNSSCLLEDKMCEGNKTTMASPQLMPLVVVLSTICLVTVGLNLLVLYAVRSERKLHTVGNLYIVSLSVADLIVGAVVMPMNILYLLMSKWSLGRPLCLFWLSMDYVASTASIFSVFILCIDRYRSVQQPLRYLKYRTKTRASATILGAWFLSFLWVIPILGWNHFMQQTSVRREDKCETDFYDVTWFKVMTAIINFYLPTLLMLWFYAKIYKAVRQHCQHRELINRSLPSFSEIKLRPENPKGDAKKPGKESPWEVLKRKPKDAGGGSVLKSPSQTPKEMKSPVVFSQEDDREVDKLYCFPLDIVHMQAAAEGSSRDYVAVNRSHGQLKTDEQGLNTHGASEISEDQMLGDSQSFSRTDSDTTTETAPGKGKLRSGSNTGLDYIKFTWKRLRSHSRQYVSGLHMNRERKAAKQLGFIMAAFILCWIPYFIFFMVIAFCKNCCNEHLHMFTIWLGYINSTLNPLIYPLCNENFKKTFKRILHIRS

[4] = molecular target: T3, Muscarinic acetylcholine receptor M1 (Homo sapiens, UniProt P11229); format: functional
T3 sequence (P11229 whole entry): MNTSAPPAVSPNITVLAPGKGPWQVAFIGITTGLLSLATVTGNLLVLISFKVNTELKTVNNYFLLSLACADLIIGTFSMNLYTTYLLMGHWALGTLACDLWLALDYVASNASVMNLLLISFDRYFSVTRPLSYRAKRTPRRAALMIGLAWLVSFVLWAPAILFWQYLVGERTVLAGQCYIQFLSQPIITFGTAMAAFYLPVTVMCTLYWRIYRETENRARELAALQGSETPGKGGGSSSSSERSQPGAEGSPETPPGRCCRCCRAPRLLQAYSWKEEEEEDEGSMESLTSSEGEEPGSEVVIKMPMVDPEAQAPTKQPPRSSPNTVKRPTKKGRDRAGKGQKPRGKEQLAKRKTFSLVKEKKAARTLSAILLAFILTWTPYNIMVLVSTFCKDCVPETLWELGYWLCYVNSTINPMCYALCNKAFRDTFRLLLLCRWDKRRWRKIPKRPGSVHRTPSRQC

[5] = molecular target: T1, Gamma-aminobutyric acid receptor subunit alpha-1/alpha-2/beta-2/gamma-2; format: functional, cell-based
[6] = molecular target: T4, Endothelin receptor type B (Homo sapiens, UniProt P24530)
T4 sequence (P24530 whole entry): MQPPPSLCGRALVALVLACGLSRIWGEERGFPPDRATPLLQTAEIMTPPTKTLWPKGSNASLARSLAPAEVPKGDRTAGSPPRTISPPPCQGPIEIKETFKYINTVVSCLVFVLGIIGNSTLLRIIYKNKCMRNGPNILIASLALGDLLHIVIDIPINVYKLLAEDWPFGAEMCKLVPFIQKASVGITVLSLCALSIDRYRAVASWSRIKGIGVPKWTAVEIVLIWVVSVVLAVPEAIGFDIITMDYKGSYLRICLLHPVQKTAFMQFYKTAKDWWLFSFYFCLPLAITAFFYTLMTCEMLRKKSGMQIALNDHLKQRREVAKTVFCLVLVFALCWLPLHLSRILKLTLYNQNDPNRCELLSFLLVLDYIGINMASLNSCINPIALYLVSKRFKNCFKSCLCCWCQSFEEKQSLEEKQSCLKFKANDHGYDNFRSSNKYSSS

Glucagon receptor = Glucagon receptor (Homo sapiens, UniProt P47871)
Chain of Glucagon receptor (P47871 whole entry): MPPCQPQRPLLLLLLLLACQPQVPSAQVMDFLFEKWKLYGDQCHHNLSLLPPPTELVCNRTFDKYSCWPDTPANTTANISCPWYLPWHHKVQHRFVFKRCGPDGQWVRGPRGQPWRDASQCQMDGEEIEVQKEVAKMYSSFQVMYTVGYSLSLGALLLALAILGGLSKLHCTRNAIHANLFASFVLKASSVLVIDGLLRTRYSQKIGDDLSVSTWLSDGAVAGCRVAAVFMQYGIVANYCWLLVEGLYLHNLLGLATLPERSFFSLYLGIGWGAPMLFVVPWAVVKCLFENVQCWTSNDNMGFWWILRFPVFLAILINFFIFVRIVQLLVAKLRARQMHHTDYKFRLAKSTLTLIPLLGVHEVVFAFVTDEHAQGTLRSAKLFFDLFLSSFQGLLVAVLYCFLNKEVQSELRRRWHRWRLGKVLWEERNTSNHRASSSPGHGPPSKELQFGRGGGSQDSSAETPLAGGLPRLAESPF

[7] = molecular target: Voltage-dependent N-type calcium channel subunit alpha-1B (Rattus norvegicus, UniProt Q02294); format: functional
[8] = molecular target: T5, Gastric inhibitory polypeptide receptor (Homo sapiens, UniProt P48546)
T5 sequence (P48546 whole entry): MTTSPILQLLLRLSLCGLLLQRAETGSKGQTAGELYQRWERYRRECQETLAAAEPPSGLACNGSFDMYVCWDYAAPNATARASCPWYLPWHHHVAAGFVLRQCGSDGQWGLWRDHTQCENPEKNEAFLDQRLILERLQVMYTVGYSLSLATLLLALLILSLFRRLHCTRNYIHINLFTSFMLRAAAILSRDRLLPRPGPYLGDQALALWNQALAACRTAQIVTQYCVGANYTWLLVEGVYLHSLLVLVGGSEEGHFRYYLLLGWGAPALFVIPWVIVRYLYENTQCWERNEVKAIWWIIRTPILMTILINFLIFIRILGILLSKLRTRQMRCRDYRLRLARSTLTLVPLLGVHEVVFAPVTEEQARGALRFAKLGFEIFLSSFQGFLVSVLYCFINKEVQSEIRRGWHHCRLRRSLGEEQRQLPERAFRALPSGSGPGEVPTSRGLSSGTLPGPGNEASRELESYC
Note: assay procedure not described here.

T1 sequence (P14867 whole entry): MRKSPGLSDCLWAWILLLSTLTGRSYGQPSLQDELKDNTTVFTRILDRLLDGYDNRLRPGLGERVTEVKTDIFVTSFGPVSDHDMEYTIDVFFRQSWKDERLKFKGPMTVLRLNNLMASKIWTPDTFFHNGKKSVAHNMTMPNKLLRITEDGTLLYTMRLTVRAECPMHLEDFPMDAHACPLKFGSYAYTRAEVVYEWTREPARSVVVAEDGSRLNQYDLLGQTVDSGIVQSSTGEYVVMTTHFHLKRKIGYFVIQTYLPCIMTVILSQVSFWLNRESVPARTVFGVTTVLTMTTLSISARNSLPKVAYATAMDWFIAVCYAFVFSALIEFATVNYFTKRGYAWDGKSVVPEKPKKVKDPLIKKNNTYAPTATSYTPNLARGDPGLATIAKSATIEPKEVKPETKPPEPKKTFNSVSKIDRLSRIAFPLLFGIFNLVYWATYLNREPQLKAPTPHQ
T1 sequence (P47870 whole entry): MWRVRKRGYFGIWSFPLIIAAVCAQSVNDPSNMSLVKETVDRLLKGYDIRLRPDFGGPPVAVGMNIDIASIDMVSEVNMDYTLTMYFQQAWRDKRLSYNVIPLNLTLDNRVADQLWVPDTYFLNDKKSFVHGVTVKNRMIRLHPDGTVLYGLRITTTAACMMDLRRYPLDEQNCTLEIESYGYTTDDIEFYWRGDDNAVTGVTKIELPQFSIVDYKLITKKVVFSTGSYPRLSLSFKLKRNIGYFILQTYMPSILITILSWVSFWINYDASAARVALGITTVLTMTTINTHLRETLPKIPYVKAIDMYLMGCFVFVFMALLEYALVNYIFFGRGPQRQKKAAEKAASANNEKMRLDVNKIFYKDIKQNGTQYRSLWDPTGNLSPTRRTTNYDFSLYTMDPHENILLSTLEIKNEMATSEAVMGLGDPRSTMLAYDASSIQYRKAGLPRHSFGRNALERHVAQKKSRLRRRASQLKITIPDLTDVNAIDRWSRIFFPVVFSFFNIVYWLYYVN
T1 sequence (P18507 whole entry): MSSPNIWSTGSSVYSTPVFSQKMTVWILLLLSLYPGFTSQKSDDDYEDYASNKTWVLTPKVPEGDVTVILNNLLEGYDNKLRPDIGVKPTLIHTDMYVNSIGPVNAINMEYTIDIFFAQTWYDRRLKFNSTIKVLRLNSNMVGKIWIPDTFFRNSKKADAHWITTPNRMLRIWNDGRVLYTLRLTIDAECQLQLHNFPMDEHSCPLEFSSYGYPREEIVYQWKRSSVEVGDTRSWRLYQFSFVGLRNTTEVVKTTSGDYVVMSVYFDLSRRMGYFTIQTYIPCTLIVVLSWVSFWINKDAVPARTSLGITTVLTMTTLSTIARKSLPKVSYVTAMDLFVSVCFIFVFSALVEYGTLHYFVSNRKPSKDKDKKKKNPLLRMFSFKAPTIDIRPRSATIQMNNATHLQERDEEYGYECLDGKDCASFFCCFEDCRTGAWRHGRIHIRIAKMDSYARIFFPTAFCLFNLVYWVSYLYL
T1 sequence (P47869 whole entry): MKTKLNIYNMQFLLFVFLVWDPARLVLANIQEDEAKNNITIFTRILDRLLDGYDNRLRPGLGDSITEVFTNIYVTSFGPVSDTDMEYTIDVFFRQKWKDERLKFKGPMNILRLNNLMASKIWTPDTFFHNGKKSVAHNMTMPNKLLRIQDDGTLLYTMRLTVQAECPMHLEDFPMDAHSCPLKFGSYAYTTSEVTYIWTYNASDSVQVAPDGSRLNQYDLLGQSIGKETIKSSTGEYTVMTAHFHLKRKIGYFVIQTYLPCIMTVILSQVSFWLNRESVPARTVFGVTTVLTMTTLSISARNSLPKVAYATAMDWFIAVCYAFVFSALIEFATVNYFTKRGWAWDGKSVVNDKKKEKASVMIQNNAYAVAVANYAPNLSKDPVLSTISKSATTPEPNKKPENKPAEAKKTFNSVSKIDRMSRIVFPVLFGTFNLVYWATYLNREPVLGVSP

Row | Structure (SMILES) | AC50 [1] | AC50 [2] | AC50 [3] | AC50 (Histamine H1 receptor) | AC50 [4] | further results
1 | FC(F)(F)c1ccc(CNc2ccc(Cc3c[nH]c4ncc(Cl)cc34)cn2)cn1 [PEXIDARTINIB] | > 3 µM |  |  |  |  | 
2 | CC(CN1CC(=O)NC(=O)C1)N1CC(=O)NC(=O)C1 (stereo unspecified) [RAZOXANE] | > 30 µM |  |  |  |  | 
3 | CC(C(=O)O)c1ccc2c(c1)[nH]c1ccc(Cl)cc12 (stereo unspecified) [CARPROFEN] |  | > 10 µM | > 30 µM | > 10 µM | > 10 µM | 
4 | CN(CC1(C)CCCO1)S(=O)(=O)c1ccc(Cl)c(S(N)(=O)=O)c1 (stereo unspecified) [MEFRUSIDE] |  |  | > 30 µM | > 30 µM | > 30 µM | AC50 [5]: > 30 µM
5 | CCOC(=O)C1=C[C@@H](OC(CC)CC)[C@H](NC(C)=O)[C@@H](N)C1 [OSELTAMIVIR] | > 30 µM |  |  |  |  | 
6 | COc1cc2nc(N3CCN(C(=O)C4CCCO4)CC3)nc(N)c2cc1OC (stereo unspecified) [TERAZOSIN] |  |  |  |  |  | AC50 [6]: > 30 µM; AC50 (Glucagon receptor): > 30 µM; AC50 [7]: > 10 µM; AC50 [8]: > 30 µM
7 | O=C1CN(/N=C/c2ccc(-c3ccc([N+](=O)[O-])cc3)o2)C(O)=N1 [DANTROLENE] |  | > 10 µM | > 30 µM | > 10 µM | > 10 µM | 
8 | C[C@H]1O[C@@H](n2cc(F)c(=O)[nH]c2=O)[C@H](O)[C@@H]1O [DOXIFLURIDINE] | > 30 µM |  |  |  |  | 
9 | C[C@@H](NCCCc1cccc(C(F)(F)F)c1)c1cccc2ccccc12 |  |  | 14 µM | 16 µM | 17 µM | AC50 [5]: > 30 µM
10 | CC(C)Cc1ccc(C(C)C(=O)O)cc1 (stereo unspecified) [IBUPROFEN] | > 30 µM | > 10 µM |  |  |  | AC50 [6]: > 30 µM; AC50 (Glucagon receptor): > 30 µM; AC50 [7]: > 10 µM; AC50 [8]: > 30 µM
11 | CC[C@H]1OC(=O)[C@H](C)C(=O)[C@H](C)[C@@H](O[C@@H]2O[C@H](C)C[C@H](N(C)C)[C@H]2O)[C@](C)(OC)C[C@@H](C)C(=O)[C@H](C)[C@H]2N(CCCCn3cnc(-c4cccnc4)c3)C(=O)O[C@]12C [TELITHROMYCIN] | > 30 µM |  |  |  |  | 
12 | CN1CCCCC1CCN1c2ccccc2Sc2ccc([S+](C)[O-])cc21 (stereo unspecified) [MESORIDAZINE] | > 30 µM |  |  |  |  | 
13 | CC(=O)O[C@]1(C(C)=O)CC[C@H]2[C@@H]3C=C(C)C4=CC(=O)CC[C@@H]4[C@H]3CC[C@@]21C [NOMEGESTROL ACETATE] |  |  | > 30 µM | > 30 µM | > 30 µM | 
14 | [H]/N=C(\N/C(=N/[H])Nc1ccc(Cl)cc1)NC(C)C [PROGUANIL] | > 30 µM |  |  |  |  | 
15 | C[C@@H]1C[C@H]2[C@@H]3CCC4=CC(=O)C=C[C@]4(C)[C@@]3(Cl)[C@@H](O)C[C@]2(C)[C@@]1(OC(=O)c1ccco1)C(=O)CCl [MOMETASONE FUROATE] | > 30 µM |  |  |  |  | 
16 | C[C@H]1c2cccc(O)c2C(=O)C2=C(O)[C@]3(O)C(=O)C(C(N)=O)=C(O)[C@@H](N(C)C)[C@@H]3[C@@H](O)[C@@H]21 [DOXYCYCLINE] |  | 3.4 µM |  |  |  | AC50 [6]: > 30 µM; AC50 (Glucagon receptor): > 30 µM; AC50 [7]: > 10 µM; AC50 [8]: > 30 µM
17 | O=C1C(CC[S+]([O-])c2ccccc2)C(=O)N(c2ccccc2)N1c1ccccc1 (stereo unspecified) [SULFINPYRAZONE] |  | > 10 µM |  |  |  | 
18 | N[C@@H](CS)C(=O)O [CYSTEINE] | > 30 µM |  |  |  |  | 
19 | COc1ccccc1Oc1c(NS(=O)(=O)c2ccc(C(C)(C)C)cc2)nc(-c2ncccn2)nc1OCCO [BOSENTAN] |  | > 10 µM | > 30 µM | > 10 µM | > 10 µM | AC50 (Glucagon receptor): > 30 µM; AC50 [7]: > 10 µM; AC50 [8]: > 30 µM
20 | Nc1ccc(S(=O)(=O)Nc2nccs2)cc1 [SULFATHIAZOLE] |  | 5.1 µM |  |  |  | AC50 [6]: > 30 µM; AC50 (Glucagon receptor): > 30 µM; AC50 [7]: > 10 µM; AC50 [8]: > 30 µM
